{"source": "patent US7652172B2", "about": "“Expeditious synthesis of DPD” (The Trustees of Princeton University, priority 2004, dated 2010)", "key": {"[1]": {"test_system": "V. harveyi strain MM32 (luxN− luxS−)", "experiment": "V. harveyi autoinducer bioassay (light emission)", "assay_type": "cell-based", "details": "for activity compared with enzymatically prepared DPD in the V. harveyi bioassay: equal concentration, 0.5 M potassium phosphate buffer, pH 7.3", "method": "(§1) V. harveyi strain MM32 (luxN^− luxS^−) was grown overnight and subsequently diluted 5.000-fold in AB growth medium. This bioassay was performed as developed by the method of Schauder et. al. (2001). To 90 μL of diluted cells ,10 μL of various compounds were added, and the resulting cultures were further incubated in a 96-well microtiter dish at 30° C. for approximately 6 h. The concentration of crude DPD was calculated by measuring the amount of homocysteine released in an Ellman's test. Light emission was measured using a Wallac model 1450 microbeta Plus scintillation counter.\nA. Comparative bioactivity of enzymatically-produced DPD, synthetic DPD and synthetic ent-DPD. Each of these three compounds and a blank were assessed in the above bioassay at equal concentrations. The bio assays were conducted with a dilution of 0.53 mM enzymatically-produced DPD, a dilution of 5.0 mM synthetic DPD or a dilution of 5.0 mM ent-DPD."}, "[2]": {"experiment": "11B NMR DPD-borate binding study", "assay_type": "physicochemical", "details": "100 μM DPD in 400 μM B(OH)3, pH 7.5", "method": "To explore the binding of DPD with borate under conditions that more closely resemble those in the natural habitat of V. harveyi and to correlate this study with previous work using DPD produced in vivo and released from the V. harveyi receptor protein, LuxP, the ^11B NMR spectrum of a 100 μM DPD solution in 400 μM B(OH)3 (Dickson et al. 1990) at pH 7.5 was recorded. […] Based on the ratio of integrals for the B(OH)3 peak and the DPD:borate peak, the concentration of DPD:borate complex was calculated to be ca 10 μM. consistent with ca 10% DPD bound at this dilution. We were unable to observe conclusively the presence of complexes with a 2:1 DPD:borate stoichiometry due to sensitivity limitations of the ^11B NMR experiment, although a peak with a S/N of 2 was recorded at δ 9.8 ppm.\nTo explore further the ability of DPD to complexborate at more physiologically relevant concentrations, a mixture of 10 μL of 40 mM B(OH)3, […] of 10 mM DPD, 100 μL of 1 M potassium phosphate buffer (pH 7), 200 μL of sat. NaHCO3 and 680 μL of D2O was produced to generate a 100 μM DPD solution in 400 μM B(OH)3, at pH 7.5. This solution was then analyzed by ^11B NMR to determine binding, as discussed in the Detailed Description of the Invention."}, "[3]": {"test_system": "V. harveyi strain MM32 (luxN− luxS−)", "experiment": "Effects of low pH on DPD bioactivity (V. harveyi bioassay after acid treatment)", "assay_type": "cell-based", "method": "as §1\nB. Effects of low pH on enzmmatically-produced DPD bioactivity. Enzymatically produced DPD (0.53 mM stock concentration) was mixed with sulfuric or hydrochloric acid at a ratio of 1 μL H2SO4 or 5 μL HCl to 250 μL DPD, resulting in solutions with a pH of 1.5 (with H2SO4) or 2 (with HCl). At times indicated, 1 M Tris pH 8.5 was added to restore the pH to neutral and bioactivity was determined. […] Similar results were obtained after exposure to H2SO4 (not shown).\nC. Effects of low pH on synthetic DPD bioactivity. Synthetically-produced DPD (100 mM stock concentration) was mixed with H2SO4 at a ratio of 1 μL H2SO4 to 250 μL DPD, resulting in solutions with a pH of 1.3. After 16 h, 1 M Tris pH 8.5 was added at a ratio of 5 μL buffer to 20 uL DPD solution to restore the pH to 7.5."}, "[4]": {"experiment": "Stability of DPD in aqueous solution monitored by 1H NMR", "assay_type": "physicochemical", "method": "Synthetically-produced DPD was stable under acidic conditions; a 30 mM sample of the molecule was monitored for decomposition via ^1H NMR for 5 h at 20° C. and pH 1.5. […] The purity of the synthetic DPD was further established by reaction with o-phenylenediamine to produce (S)-1-(3-methylquioxalin-2-yl)-ethane-1,2-diol in >98% purity.\nTo a suspension of 11 (9.6 mg, […]) in D2O) (1.5 mL) was added conc. D2SO4 (1.5 μL, final pD1.5). The reaction was allowed to continue for 5 h and was monitored by ^1H NMR. A ^1H-^1H DQCOSY spectrum was recorded at the 5-h time point to help establish the identity of each ^1H signal. […] The extra signals in the region form 1.35-1.45 ppm and 3.4-4.6 ppm are most likely due to a small amount of 1 that is not hydrated at C3. This hypothesis is supported by the complete disappearance of these peaks upon addition of 1,2-phenylenediamine (see Example 13)"}, "[5]": {"test_system": "cell growth", "experiment": "Cell growth inhibition by deprotection by-product", "assay_type": "cell-based", "details": "concentrations under 1 M"}}}
{"smiles": "CC(=O)C(=O)C(O)CO", "note": "(stereo not shown) [DPD, 4,5-dihydroxypentane-2,3-dione]", "values": [{"measurement": "activity in the V. harveyi autoinducer-bioassay", "setting": "[1]; deprotection solution with excess borate at pH 7.8, without further purification", "value": "active"}, {"measurement": "activity compared with enzymatically prepared DPD in the V. harveyi bioassay", "setting": "[1]", "value": "equal"}, {"measurement": "activity compared with enzymatically prepared DPD in the V. harveyi bioassay", "setting": "[1]; listed as synthetic DPD", "value": "equal in activity"}, {"measurement": "DPD bound to borate", "setting": "[2]", "value": "~10", "unit": "%"}, {"measurement": "concentration of DPD:borate complex", "setting": "[2]; from ratio of 11B NMR integrals", "value": "~10", "unit": "µM"}, {"measurement": "change in bioactivity after storage under acidic conditions", "setting": "[3]; pH 1.5-2, dilute aqueous solution, 16 h at 20° C., DPD at least 30 mM and up to 100 mM", "value": "no significant decrease in bioactivity"}, {"measurement": "effect of acid treatment on autoinducer activity", "setting": "[3]; synthetic, 100 mM, pH 1.3, 16 h, 20° C., listed as Synthetically-produced DPD", "value": "no loss in activity"}, {"measurement": "effect of acid treatment on autoinducer activity", "setting": "[3]; synthetic, 100 mM, pH 1.3, 16 h, 20° C., listed as synthetic DPD", "value": "did not change the auto inducer activity"}, {"measurement": "decomposition under acidic conditions by 1H NMR", "setting": "[4]; 30 mM, 5 h at 20° C., pH 1.5", "value": "no decomposition products were observed"}, {"measurement": "stability at basic pH", "setting": "[4]; pH>8, unless bound to borate", "value": "less stable"}]}
{"smiles": "CC(=O)C(=O)[C@H](O)CO", "note": "[Ent-DPD]", "values": [{"measurement": "activity relative to DPD (1) in the V. harveyi bioassay", "setting": "[1]", "value": 1, "unit": "%"}]}
{"smiles": "O=C1CCCCC1", "note": "[cyclohexanone]", "values": [{"measurement": "inhibition of cell growth", "setting": "[5]", "value": "does not inhibit cell growth"}]}
{"smiles": "CC(=O)C(=O)C(O)CO", "note": "(stereo not shown) [enzymatically-produced DPD, 4,5-dihydroxypentane-2,3-dione, reference compound]", "values": [{"measurement": "effect of acid treatment on autoinducer activity", "setting": "[3]; enzymatically produced, 0.53 mM stock, pH 1.5 (H2SO4) or 2 (HCl), up to 16 h", "value": "did not affect the autoinducer activity"}]}
